Laboratory results taken from article PMC11219871, “Epigenetic-based differentiation therapy for Acute Myeloid Leukemia” (Nature Communications, 2024).
Where “and” joins values, the source holds several entries; their conditions need not be identical. Equal entries are not always repeated.

Assays:
GF-D8 = experiment: Cell proliferation assay: GI50; assay type: cell-based; details: GF-D8, replicates 1-3
Method: (§1) Cell proliferation was analyzed using the CellTiter 96 Aqueous One Solution Cell Proliferation Assay (Promega, Madison, WI). This is a colorimetric method for determining the number of viable cells in proliferation. For the assay, suspension cells were cultured in triplicate at a density of 1 × 10^6 cells/mL in 96-well plates (100.000 cells/well, 100 µL/well), using only the 60 inner wells to avoid any border effects. After 48 h of treatment with different doses of each compound (0, 0.001, 0.01, 0.1, 0.2, 0.4, 0.6, 0.8, 1, 2, 3, 4, 5 and 10 µM), the plates were centrifuged at 800 g for 10 min followed by removal of the medium. Then, the cells were incubated with 100 μL/well of medium and 20 μL/well of CellTiter 96 Aqueous One Solution reagent for 1–3 h. The absorbance was recorded at 490 and 650 nm as reference wavelengths using 96-well plate readers until the absorbance of the control cells without treatment was approximately 0.8 AU. The background absorbance was measured in wells with only cell line medium and solution reagent. First, the average of the absorbance from the control wells was subtracted from all other absorbance values. Data were calculated as the percentage of total absorbance of treated cells/absorbance of non-treated cells. The GI50 values of the different compounds were determined using non-linear regression plots made with GraphPad Prism v5 software.

HEL = experiment: Cell proliferation assay: GI50; assay type: cell-based; details: replicates 1-3
Method: as §1

KASUMI-1 = experiment: Cell proliferation assay: GI50; assay type: cell-based
Method: as §1

M-07e = experiment: Cell proliferation assay: GI50; assay type: cell-based; details: replicates 1-3
Method: as §1

MONO-MAC-6 = experiment: Cell proliferation assay: GI50; assay type: cell-based
Method: as §1

NB-4 = experiment: Cell proliferation assay: GI50; assay type: cell-based
Method: as §1

OCI-AML2 = experiment: Cell proliferation assay: GI50; assay type: cell-based
Method: as §1

OCI-AML3 = experiment: Cell proliferation assay: GI50; assay type: cell-based
Method: as §1

TF-1 = experiment: Cell proliferation assay: GI50; assay type: cell-based
Method: as §1

THP-1 = experiment: Cell proliferation assay: GI50; assay type: cell-based
Method: as §1

UT-7 = experiment: Cell proliferation assay: GI50; assay type: cell-based
Method: as §1

HL-60 = experiment: Differentiation-apoptosis assay, CD11b / annexin-V / Sytox Green / myeloid markers flow cytometry; assay type: cell-based, human; parameters: Cell viability (%): concentration or dose not given beside the values; CD11b levels: unit not given here
Method: Next, the cells were washed twice with phosphate-buffered saline (PBS) and resuspended in 1X Binding Buffer at a concentration of 1 × 10^6 cells/mL. […] Finally, after the addition of 400 µL of 1X Binding Buffer to each tube, samples were collected on a BD FACSCanto flow cytometer (Becton Dickinson, San Jose, CA, USA) and analyzed using FlowJo software.
Then, 1 million cells (volume of 250 µL) were added and incubated for 30 min at room temperature in darkness. After 10 min incubation at room temperature with 2 mL of FACSLysing 1X, cells were centrifuged at 540 g for 5 min and washed twice with FACSBuffer. Finally, after centrifugation at 540 g for 5 min cells were resuspended in FACSBuffer.

MV4-11 = experiment: as above; assay type: cell-based, human; parameters: Cell viability (%): concentration or dose not given beside the values; CD11b levels: unit not given here
Method: Next, the cells were washed twice with phosphate-buffered saline (PBS) and resuspended in 1X Binding Buffer at a concentration of 1 × 10^6 cells/mL. An 8-µL aliquot of APC-CD11b (BD Pharmingen, Franklin Lakes, NJ, USA) and 1 µL of FITC annexin-V (AV) (BD Pharmingen, Franklin Lakes, NJ, USA) antibodies were added and incubated for 15 min at room temperature in the dark. Finally, after the addition of 400 µL of 1X Binding Buffer to each tube, samples were collected on a BD FACSCanto flow cytometer (Becton Dickinson, San Jose, CA, USA) and analyzed using FlowJo software.
For the rest of experiments, the mix of antibodies (2 µL of BV786-CD13, Cat No, 744748 BD; 1 µL of diluted 1:10 antibody of PB-HLADR, Cat No 307633, Biolegend; 5 µL of APCH7-CD14, Cat No 641394, BD) was added to 10 µL of Brilliant Stain Buffer Plus (Becton Dickinson, San Jose, CA, USA). Then, 1 million cells (volume of 250 µL) were added and incubated for 30 min at room temperature in darkness. After 10 min incubation at room temperature with 2 mL of FACSLysing 1X, cells were centrifuged at 540 g for 5 min and washed twice with FACSBuffer. Finally, after centrifugation at 540 g for 5 min cells were resuspended in FACSBuffer.

[1] = HL-60, 48 h treatment, replicates 1-3 (Suppl. Fig. 5A)
[2] = HL-60, daily treatment, time 0 days, replicates 1-3 (Figure 2B)
[3] = HL-60, daily treatment, time 2 days, replicates 1-3 (Figure 2B)
[4] = HL-60, daily treatment, time 4 days, replicates 1-3 (Figure 2B)
[5] = HL-60, daily treatment, time 6 days, replicates 1-3 (Figure 2B)
[6] = HL-60, daily treatment, time 8 days, replicates 1-3 (Figure 2B)
[7] = MV4-11, 48 h treatment, replicates 1-3 (Suppl. Fig. 5A)
[8] = MV4-11, daily treatment, time 0 days
[9] = MV4-11, daily treatment, time 2 days
[10] = MV4-11, daily treatment, time 4 days
[11] = MV4-11, daily treatment, time 6 days

COc1cc2nc(-c3ccc(C)o3)cc(NCC3CCN(c4ncc(C(=O)NO)cn4)CC3)c2cc1OC [CM-444, 2-[4-[[[6,7-dimethoxy-2-(5-methyl-2-furyl)-4-quinolyl]amino]methyl]-1-piperidyl]pyrimidine-5-carbohydroxamic acid]
GI50 (GF-D8): 7250 nM and 4120 nM and 3690 nM | GI50 (HEL; Homo sapiens): 1590 nM | GI50 (HEL): 1120 nM and 938 nM | GI50 (KASUMI-1; Homo sapiens, Kasumi 1, 48 h, KASUMI-1, 48 h): 668 nM | GI50 (KASUMI-1; Homo sapiens, Kasumi 1, KASUMI-1, replicates 1-3): 521 nM | GI50 (KASUMI-1; KASUMI-1, replicates 1-3): 698 nM and 786 nM | GI50 (M-07e): 1330 nM and 1200 nM and 1180 nM | GI50 (MONO-MAC-6; Homo sapiens, MONO-MAC-6, 48 h): 470 nM | GI50 (MONO-MAC-6; MONO-MAC-6, replicates 1-3): 215 nM and 607 nM and 588 nM | GI50 (NB-4; Homo sapiens, NB-4, 48 h): 668 nM | GI50 (NB-4; Homo sapiens, NB-4, NB-4, replicates 1-3): 658 nM | GI50 (NB-4; NB-4, replicates 1-3): 785 nM and 563 nM | GI50 (OCI-AML2; Homo sapiens, OCI-AML2, 48 h): 640 nM | GI50 (OCI-AML2; Homo sapiens, OCI-AML2, OCI-AML2, replicates 1-3): 736 nM | GI50 (OCI-AML2; OCI-AML2, replicates 1-3): 574 nM and 612 nM | GI50 (OCI-AML3; Homo sapiens, OCI-AML-3, OCI-AML3, 48 h): > 10000 nM | GI50 (OCI-AML3; Homo sapiens, OCI-AML-3, OCI-AML3, replicates 1-3): > 10000 nM | GI50 (OCI-AML3; OCI-AML3, replicates 1-3): > 10000 nM | GI50 (TF-1; Homo sapiens, TF-1, TF-1, replicates 1-3): 3870 nM | GI50 (TF-1; TF-1, replicates 1-3): 3250 nM and 3500 nM | GI50 (THP-1; Homo sapiens, THP-1, 48 h): > 10000 nM | GI50 (THP-1; Homo sapiens, THP-1, replicates 1-3): > 10000 nM | GI50 (THP-1; THP-1, replicates 1-3): > 10000 nM | GI50 (UT-7; Homo sapiens, UT7, 48 h, UT-7, 48 h): 970 nM | GI50 (UT-7; Homo sapiens, UT7, UT-7, replicates 1-3): 875 nM | GI50 (UT-7; UT-7, replicates 1-3): 1070 nM and 965 nM | percentage of CD11b (HL-60; HL-60, 270 nM CM-444 or 300 nM CM-1758 daily for 4 days, before injection): > 90% | CD11b (%) (HL-60; HL-60, 48 h): 74.3% | CD13 (%) (HL-60; HL-60, 48 h): 100% | CD14 (%) (HL-60; HL-60, 48 h): 21.5% | HLA-DR (%) (HL-60; HL-60, 48 h): 9.16% | CD11b (%) (HL-60; [1]): 71.2% and 75.4% and 68.7% | Cell viability (%) (HL-60; [1]): 78.5% and 72.1% and 82.5% | differentiation level (CD11b) (HL-60; HL-60, after 6–8 days of treatment): ~90% | Annexin V (%) Replicate 1 (HL-60; HL-60, daily 25% GI50, 48 h): 0.75% | Annexin V (%) Replicate 2 (HL-60; HL-60, daily 25% GI50, 48 h): 0.49% | Annexin V (%) Replicate 3 (HL-60; HL-60, daily 25% GI50, 48 h): 0.44% | CD11b (%) Replicate 1 (HL-60; HL-60, daily 25% GI50, 48 h): 86.24% | CD11b (%) Replicate 2 (HL-60; HL-60, daily 25% GI50, 48 h): 75.15% | CD11b (%) Replicate 3 (HL-60; HL-60, daily 25% GI50, 48 h): 76.65% | Annexin-V (%) (HL-60; [2]): 0% and 4.96% and 3.21% | CD11b (%) (HL-60; [2]): 13.33% and 12.5% and 10.8% | Annexin-V (%) (HL-60; [3]): 6.83% and 2.49% and 5.41% | CD11b (%) (HL-60; [3]): 79.45% and 76.2% and 73.9% | Annexin-V (%) (HL-60; [4]): 0% and 2.98% and 3.14% | CD11b (%) (HL-60; [4]): 95.2% and 93.5% and 90.4% | Annexin-V (%) (HL-60; [5]): 9.4% and 2.53% and 5.87% | CD11b (%) (HL-60; [5]): 93% and 97.3% and 95.8% | Annexin-V (%) (HL-60; [6]): 0% and 4.09% and 6.81% | CD11b (%) (HL-60; [6]): 98.61% and 98.5% and 97.1% | CD11b (%) (HL-60; HL-60 cell line, replicates 1-3 (Figure 2A)): 88.3% and 85.7% and 88.0% | CD11b levels (HL-60; HL-60 treated daily for 48 h, replicates (Fig 6D)): 76.5 and 85.9 and 92.1 | CD11b (%) (MV4-11; MV4-11, 48 h): 58.9% | CD13 (%) (MV4-11; MV4-11, 48 h): 98.0% | CD14 (%) (MV4-11; MV4-11, 48 h): 57.6% | HLA-DR (%) (MV4-11; MV4-11, 48 h): 42.1% | CD11b (%) (MV4-11; [7]): 53.8% and 54.1% and 56.8% | Cell viability (%) (MV4-11; [7]): 72.5% and 67.1% and 68% | differentiation level (CD11b) (MV4-11; MV4-11, after 6–8 days of treatment): ~90% | CD11b levels (MV4-11; MV4-11, daily treatment for 48 h, replicates 1-3 (Suppl. Fig. 9A)): 39.5 and 43.7 and 45.9 | Annexin-V (%) (MV4-11; [8]): 5.32% and 4.14% and 5.2% | CD11b (%) (MV4-11; [8]): 11.1% and 6.62% and 5.25% | Annexin-V (%) (MV4-11; [9]): 28.1% and 26.8% and 25.7% | CD11b (%) (MV4-11; [9]): 30.2% and 35.8% and 36.8% | Annexin-V (%) (MV4-11; [10]): 38.5% and 41.2% and 41.8% | CD11b (%) (MV4-11; [10]): 53.4% and 55% and 51.8% | Annexin-V (%) (MV4-11; [11]): 79.6% and 81.2% and 80.7% | CD11b (%) (MV4-11; [11]): 74.9% and 73.2% and 74.5% | CD11b (%) (MV4-11; MV4-11 cell line, replicates 1-3 (Figure 2A)): 41.7% and 49.8% and 50.4%
